PMC6717862 (Drug Design, Development and Therapy, 2019)

Legend:
EGFR = EGFR (Homo sapiens, UniProt P00533); assay: In vitro enzymatic activity assay; assay type: biochemical; conditions: read-out: EGFR inhibition%, inhibition percentage at 1.0 μM
[1] = hypoxia vs normoxia; cited from earlier work

EGFR, sequence (P00533 25-1210): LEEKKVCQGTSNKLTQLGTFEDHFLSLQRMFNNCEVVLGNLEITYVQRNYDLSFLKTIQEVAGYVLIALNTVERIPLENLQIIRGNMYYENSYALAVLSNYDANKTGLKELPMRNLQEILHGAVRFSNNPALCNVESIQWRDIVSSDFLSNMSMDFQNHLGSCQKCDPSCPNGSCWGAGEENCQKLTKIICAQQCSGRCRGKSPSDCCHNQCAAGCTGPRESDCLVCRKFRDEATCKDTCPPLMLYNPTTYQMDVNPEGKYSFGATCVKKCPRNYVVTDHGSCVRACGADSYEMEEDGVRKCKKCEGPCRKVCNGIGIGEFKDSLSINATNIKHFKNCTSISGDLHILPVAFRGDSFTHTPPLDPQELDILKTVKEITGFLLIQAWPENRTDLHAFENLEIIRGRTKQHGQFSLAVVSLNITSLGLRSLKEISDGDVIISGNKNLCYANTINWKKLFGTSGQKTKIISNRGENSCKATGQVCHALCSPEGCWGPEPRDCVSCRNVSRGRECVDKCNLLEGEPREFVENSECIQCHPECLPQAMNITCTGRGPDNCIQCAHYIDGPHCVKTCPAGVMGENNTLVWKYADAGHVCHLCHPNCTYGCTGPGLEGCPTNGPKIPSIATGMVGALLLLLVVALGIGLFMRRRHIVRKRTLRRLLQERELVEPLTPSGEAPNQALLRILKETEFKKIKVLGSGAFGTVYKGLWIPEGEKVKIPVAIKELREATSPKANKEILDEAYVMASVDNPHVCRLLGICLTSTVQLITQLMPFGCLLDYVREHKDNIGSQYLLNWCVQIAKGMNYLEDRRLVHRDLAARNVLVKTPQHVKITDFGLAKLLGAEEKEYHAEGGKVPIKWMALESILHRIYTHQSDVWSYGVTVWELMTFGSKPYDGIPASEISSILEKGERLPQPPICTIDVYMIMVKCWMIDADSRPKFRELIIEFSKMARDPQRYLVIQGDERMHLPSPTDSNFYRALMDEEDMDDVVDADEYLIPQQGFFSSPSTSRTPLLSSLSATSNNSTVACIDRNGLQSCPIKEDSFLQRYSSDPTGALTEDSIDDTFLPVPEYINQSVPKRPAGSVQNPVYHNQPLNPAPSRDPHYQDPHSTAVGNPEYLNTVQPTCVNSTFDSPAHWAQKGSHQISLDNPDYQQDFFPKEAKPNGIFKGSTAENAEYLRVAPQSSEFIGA

Row | inhibition at 1 µM (EGFR) | SMILES | fold more effective in carcinoma hypoxia than in normoxia [1]
1 | < 50% | COc1cc2ncnc(Nc3ccc(OCCn4ccnc4[N+](=O)[O-])cc3)c2cc1OCCCN1CCOCC1 [Compound 16l, 7-Methoxy-6-(3-morpholinopropoxy)-N-(4-(2-(2-nitro-1H-imidazol-1-yl)ethoxy)phenyl)quinazolin-4-amine] | 
2 | < 50% | COCCOc1cc2ncnc(Nc3ccc(OCCn4ccnc4[N+](=O)[O-])cc3)c2cc1OCCOC [Compound 16h, 6,7-Bis(2-methoxyethoxy)-N-(4-(2-(2-nitro-1H-imidazol-1-yl)ethoxy)phenyl)quinazolin-4-amine] | 
3 | < 50% | COc1cc2c(Nc3ccc(OCCn4ccnc4[N+](=O)[O-])cc3)ncnc2cc1OCCCN1CCOCC1 [Compound 16d, 6-Methoxy-7-(3-morpholinopropoxy)-N-(4-(2-(2-nitro-1H-imidazol-1-yl)ethoxy)phenyl)quinazolin-4-amine] | 
4 |  | Cn1c(COP(=O)(NCCBr)NCCBr)cnc1[N+](=O)[O-] [TH-302] | 270 fold
